In ChEMBL document CHEMBL1127887, “Synthesis and in vitro cardiovascular activity of 4-aryl-2,3,3a,4-tetrahydro-1h-pyrrolo[2,1-c][1,4]benzothiazin-1-ones and 7-acetoxy-6-phenyl-7a,8,9,10-tetrahydropyrrolo [2,1,-d][1,5]benzothiazepin-10-one” (Bioorg Med Chem Lett, 1994):

Assays:
Cavia porcellus [1] = organism: Cavia porcellus; experiment: Negative chronotropic activity on isolated guinea pig right atrium at 5x10E-5 mol/L concentration was determined; format: functional, Cardiac atrium
Cavia porcellus [2] = organism: Cavia porcellus; experiment: Negative inotropic activity on isolated guinea pig left atrium at 10E-4 mol/L concentration was determined; format: functional, Cardiac atrium
Cavia porcellus [3] = organism: Cavia porcellus; experiment: Negative inotropic potency on isolated guinea pig left atrium; format: functional, Cardiac atrium
Cavia porcellus [4] = organism: Cavia porcellus; experiment: Calcium antagonist activity on K+ depolarized guinea pig aortic strips at 10E-4 mol/L concentration was determined; format: functional; conditions: Aorta
Cavia porcellus [5] = organism: Cavia porcellus; experiment: Calcium antagonist potency on K+ depolarized guinea pig aortic strips; format: functional; conditions: Aorta
[6] = biological target: T1, Voltage-gated L-type calcium channel (Rattus norvegicus, UniProt P22002+Q02485+P27732); experiment: Displacement of [3H]nitrendipine from calcium channel receptors (CCRs); format: protein assay
[7] = biological target: T1, Voltage-gated L-type calcium channel; experiment: Inhibitory constant against calcium channel receptors (CCRs); format: protein assay
[8] = biological target: T1, Voltage-gated L-type calcium channel; experiment: Displacement of [3H]nitrendipine from calcium channel receptors (CCRs) from rat cortex homogenate
[9] = biological target: T1, Voltage-gated L-type calcium channel; experiment: Inhibitory constant against calcium channel receptors (CCRs) from rat cortex homogenate

Row | IC50 (Cavia porcellus [5]) [nM] | IC50 [6] [nM] | Ki [7] [nM] | IC50 [8] [nM] | Ki [9] [nM] | SMILES | Decrease (Cavia porcellus [1]) [%] | Decrease (Cavia porcellus [2]) [%] | ED50 (Cavia porcellus [3]) [uM l-1] | inhibition at 100 µM (Cavia porcellus [4]) [%]
1 | 16600 | 1800 | 675 | – | – | COc1ccc(C2Sc3ccccc3N3C(=O)CCC23)cc1 (stereo unspecified) | 39 | 60 | 1.2 | 32
2 | 20000 | – | – | 0.78 | 0.29 | O=C1CCC2C(c3ccccc3)Sc3ccccc3N12 (stereo unspecified) | 20 | 66 | 0.23 | 37
3 | 32400 | 1550 | 581 | – | – | CC(=O)OC1=C(c2ccccc2)Sc2ccccc2N2C(=O)CCC12 (stereo unspecified) | 27 | 96 | 1.1 | 26
4 | 2600 | – | – | – | – | COc1ccc([C@@H]2Sc3ccccc3N(CCN(C)C)C(=O)[C@@H]2OC(C)=O)cc1 [DILTIAZEM] | 94 | 78 | 0.79 | 88
